Laboratory results as given in patent publication US9409922B2, “Imidazopyridine macrocycles as inhibitors of human immunodeficiency virus replication” (priority 2014, dated 2016).

These compounds were tested on NL-RLuc virus (assay: Inhibition of HIV replication: NL-RLuc reporter virus in MT-2 cells, luciferase readout). Conditions: Human immunodeficiency virus 1, MT2, 120 h, MT-2 cells infected with NL-RLuc virus, 5 days of incubation, 10% FBS, at least 2 experiments.
Assay type: cell-based
Description: Inhibition of HIV Replication:
A recombinant NL-RLuc proviral clone was constructed in which a section of the nef gene from NL4-3 was replaced with the Renilla Luciferase gene. This virus is fully infectious and can undergo multiple cycles of replication in cell culture. In addition, the luciferous reporter provides a simple and easy method for quantitating the extent of virus growth and consequently, the antiviral activity of test compounds. The plasmid pNLRLuc contains the proviral NL-Rluc DNA cloned into pUC 18 at the PvuII site. The NL-RLuc virus was prepared by transfection of 293T cells with the plasmid pNLRLuc. Transfections were performed using the LipofectAMINE PLUS kit from Invitrogen (Carlsbad, Calif.) according to the manufacturer and the virus generated was titered in MT-2 cells. For susceptibility analyses, the titrated virus was used to infect MT-2 cells in the presence of compound, and after 5 days of incubation, cells were processed and quantitated for virus growth by the amount of expressed luciferase. Assay media was RPMI 1640 supplemented with 10% heat inactivated fetal bovine serum (FBS), 100 units/ml penicillin G/100 units/ml streptomycin, 10 mM HEPES buffer pH 7.55 and 2 mM L-glutamine. The results from at least 2 experiments were used to calculate the EC50 values. Luciferase was quantitated using the Dual Luciferase kit from Promega (Madison, Wis.). Susceptibility of viruses to compounds was determined by incubation in the presence of serial dilutions of the compound. The 50% effective concentration (EC50) was calculated by using the exponential form of the median effect equation where (Fa)=1/[1+(ED50/drug conc.)^m](Johnson V A, Byington R T. Infectivity Assay. In Techniques in HIV Research. ed. Aldovini A, Walker B D. 71-76. New York: Stockton Press. 1990).
Work on Cc1cc2c(cc1F)-c1cccc(c1)-c1cn3c(c([C@H](OC(C)(C)C)C(=O)O)c(C)c(C)c3n1)N1CCC(C)(CC1)OCCCC[C@H](C)O2 [Example 30, (2S)-2-(tert-Butoxy)-2-[(22S)-17-fluoro-4,5,18,22,28-pentamethyl-21,27-dioxa-1,7,34-triazahexacyclo[26.2.2.1^6,^9.1^10,^14.0^2,^7.0^15,^20]tetratriaconta-2,4,6(34),8,10(33),11,13,15(20),16,18-decaen-3-yl]acetic acid] yielded an EC50 of 21 nM.
In the case of Cc1c([C@H](OC(C)(C)C)C(=O)O)c2n3cc(nc3c1C(F)F)-c1cccc(c1)-c1cc(F)ccc1O[C@@H](C)CCCCOC1(C)CCN2CC1 [Example 63, (2S)-2-(tert-Butoxy)-2-[(22S)-5-(difluoromethyl)-17-fluoro-4,22,28-trimethyl-21,27-dioxa-1,7,34-triazahexacyclo[26.2.2.1^6,^9.1^10,^14.0^2,^7.0^15,^20]tetratriaconta-2,4,6(34),8,10(33),11,13,15(20),16,18-decaen-3-yl]acetic acid], the EC50 is reported as 18 nM.
Compound Cc1c([C@H](OC(C)(C)C)C(=O)O)c2n3cc(nc3c1C(C)(C)O)-c1cccc(c1)-c1cc(F)ccc1O[C@@H](C)CCCCOC1(C)CCN2CC1 [Example 65, (2S)-2-(tert-Butoxy)-2-[(22S)-17-fluoro-5-(2-hydroxypropan-2-yl)-4,22,28-trimethyl-21,27-dioxa-1,7,34-triazahexacyclo[26.2.2.1^6,^9.1^10,^14.0^2,^7.0^15,^20]tetratriaconta-2,4,6(34),8,10(33),11,13,15(20),16,18-decaen-3-yl]acetic acid] has an EC50 of 6 nM.
Cc1cc2c(cc1C)-c1cccc(c1)-c1cn3c(c([C@H](OC(C)(C)C)C(=O)O)c(C)cc3n1)N1CCC(C)(CC1)OCC=CC[C@H](C)O2 [Example 17, (2S)-2-(tert-Butoxy)-2-[(22S)-4,17,18,22,28-pentamethyl-21,27-dioxa-1,7,34-triazahexacyclo[26.2.2.1^6,^9.1^10,^14.0^2,^7.0^15,^20]tetratriaconta-2,4,6(34),8,10(33),11,13,15(20),16,18,24-undecaen-3-yl]acetic acid] showed an EC50 of 6 nM.
Compound Cc1cc2nc3cn2c(c1[C@H](OC(C)(C)C)C(=O)O)N1CCC(C)(CC1)OCCCCCOc1ccccc1Cc1nnc-3o1 [Example 4, (2S)-2-(tert-Butoxy)-2-{4,28-dimethyl-21,27,33-trioxa-1,7,11,12,34-pentaazahexacyclo[26.2.2.1^6,^9.1^10,^13.0^2,^7.0^15,^20]tetratriaconta-2,4,6(34),8,10,12,15(20),16,18-nonaen-3-yl}acetic acid] has an EC50 of 10 nM.
Compound Cc1cc2nc3cn2c(c1[C@H](OC(C)(C)C)C(=O)O)N1CCC(C)(CC1)OCCCCCOc1ccc(F)cc1CNC3=O [Example 3, (2S)-2-(tert-Butoxy)-2-{15-fluoro-4,26-dimethyl-10-oxo-19,25-dioxa-1,7,11,31-tetraazapentacyclo[24.2.2.1^6,^9.0^2,^7.0^13,^18]hentriaconta-2,4,6(31),8,13(18),14,16-heptaen-3-yl}acetic acid] has an EC50 of 27 nM.
For C=Cc1c(C)c([C@H](OC(C)(C)C)C(=O)O)c2n3cc(nc13)-c1cccc(c1)-c1cc(F)ccc1O[C@@H](C)CCCCOC1(C)CCN2CC1 [Example 38, (2S)-2-(tert-Butoxy)-2-[(22S)-5-ethenyl-17-fluoro-4,22,28-trimethyl-21,27-dioxa-1,7,34-triazahexacyclo[26.2.2.1^6,^9.1^10,^14.0^2,^7.0^15,^20]tetratriaconta-2,4,6(34),8,10(33),11,13,15(20),16,18-decaen-3-yl]acetic acid], the EC50 was 93 nM.
In the case of Cc1c([C@H](OC(C)(C)C)C(=O)O)c2n3cc(nc3c1C)-c1cccc(c1)-c1cccc(F)c1O[C@@H](C)CCCCOC1(C)CCN2CC1 [Example 37, (2S)-2-(tert-Butoxy)-2-[(22S)-19-fluoro-4,5,22,28-tetramethyl-21,27-dioxa-1,7,34-triazahexacyclo[26.2.2.1^6,^9.1^10,^14.0^2,^7.0^15,^20]tetratriaconta-2,4,6(34),8,10(33),11,13,15(20),16,18-decaen-3-yl]acetic acid], the EC50 is reported as 10 nM.
For Cc1c([C@H](OC(C)(C)C)C(=O)O)c2n3cc(nc3c1C)-c1cccc(c1)-c1cc(OC(F)(F)F)ccc1O[C@@H](C)CCCCOC1(C)CCN2CC1 [Example 42, (2S)-2-(tert-Butoxy)-2-[(22S)-4,5,22,28-tetramethyl-17-(trifluoromethoxy)-21,27-dioxa-1,7,34-triazahexacyclo[26.2.2.1^6,^9.1^10,^14.0^2,^7.0^15,^20]tetratriaconta-2,4,6(34),8,10(33),11,13,15(20),16,18-decaen-3-yl]acetic acid], the EC50 was 60 nM.
For Cc1cc2nc3cn2c(c1[C@H](OC(C)(C)C)C(=O)O)N1CCC(C)(CC1)OC/C=C/C[C@H](C)Oc1cc(F)ccc1-c1cccc-3c1 [Example 6, (2S)-2-(tert-Butoxy)-2-[(22S)-18-fluoro-4,22,28-trimethyl-21,27-dioxa-1,7,34-triazahexacyclo[26.2.2.1^6,^9.1^10,^14.0^2,^7.0^15,^20]tetratriaconta-2,4,6(34),8,10(33),11,13,15(20),16,18,24-undecaen-3-yl]acetic acid], the EC50 was 5 nM.
Cc1cc2nc3c(F)n2c(c1[C@H](OC(C)(C)C)C(=O)O)N1CCC(C)(CC1)OCCCC[C@H](C)Oc1cc(F)c(F)cc1-c1cccc-3c1 [Example 26, (2S)-2-(tert-Butoxy)-2-[(22S)-8,17,18-trifluoro-4,22,28-trimethyl-21,27-dioxa-1,7,34-triazahexacyclo[26.2.2.1^6,^9.1^10,^14.0^2,^7.0^15,^20]tetratriaconta-2,4,6(34),8,10(33),11,13,15(20),16,18-decaen-3-yl]acetic acid] gave an EC50 of 26 nM.
With Cc1cc2c(cc1C)-c1cccc(c1)-c1cn3c(c([C@H](OC(C)(C)C)C(=O)O)c(C)cc3n1)N1CCC(C)(CC1)OC/C=C\C[C@H](C)O2 [Example 18, (2S)-2-(tert-Butoxy)-2-[(22S)-4,17,18,22,28-pentamethyl-21,27-dioxa-1,7,34-triazahexacyclo[26.2.2.1^6,^9.1^10,^14.0^2,^7.0^15,^20]tetratriaconta-2,4,6(34),8,10(33),11,13,15(20),16,18,24-undecaen-3-yl]acetic acid] the EC50 was 8 nM.
Cc1cc2nc3c(Cl)n2c(c1[C@H](OC(C)(C)C)C(=O)O)N1CCC(C)(CC1)OCCCC[C@H](C)Oc1cc(F)c(F)cc1-c1cccc-3c1 [Example 23, (2S)-2-(tert-Butoxy)-2-[(22S)-8-chloro-17,18-difluoro-4,22,28-trimethyl-21,27-dioxa-1,7,34-triazahexacyclo[26.2.2.1^6,^9.1^10,^14.0^2,^7.0^15,^20]tetratriaconta-2,4,6(34),8,10(33),11,13,15(20),16,18-decaen-3-yl]acetic acid] gave an EC50 of 19 nM.
With Cc1c([C@H](OC(C)(C)C)C(=O)O)c2n3cc(nc3c1C(C)C)-c1cccc(c1)-c1cc(F)ccc1O[C@@H](C)CCCCOC1(C)CCN2CC1 [Example 56, (2S)-2-(tert-Butoxy)-2-[(22S)-17-fluoro-4,22,28-trimethyl-5-(propan-2-yl)-21,27-dioxa-1,7,34-triazahexacyclo[26.2.2.1^6,^9.1^10,^14.0^2,^7.0^15,^20]tetratriaconta-2,4,6(34),8,10(33),11,13,15(20),16,18-decaen-3-yl]acetic acid] the EC50 was 72 nM.
In the case of CCc1c(C)c([C@H](OC(C)(C)C)C(=O)O)c2n3cc(nc13)-c1cccc(c1)-c1cc(F)ccc1O[C@@H](C)CCCCOC1(C)CCN2CC1 [Example 55, (2S)-2-(tert-Butoxy)-2-[(22S)-5-ethyl-17-fluoro-4,22,28-trimethyl-21,27-dioxa-1,7,34-triazahexacyclo[26.2.2.1^6,^9.1^10,^14.0^2,^7.0^15,^20]tetratriaconta-2,4,6(34),8,10(33),11,13,15(20),16,18-decaen-3-yl]acetic acid], the EC50 is reported as 9 nM.

Same assay, conditions: MT-2 cells infected with NL-RLuc virus, 5 days of incubation, 10% FBS, at least 2 experiments
In the case of Cc1c([C@H](OC(C)(C)C)C(=O)O)c2n3cc(nc3c1C)-c1cccc(c1)-c1c(F)cc(F)cc1O[C@@H](C)CCCCOC1(C)CCN2CC1 [Example 44, (2S)-2-(tert-butoxy)-2-[(22S)-16,18-difluoro-4,5,22,28-tetramethyl-21,27-dioxa-1,7,34-triazahexacyclo[26.2.2.1^6,^9.1^10,^14.0^2,^7.0^15,^20]tetratriaconta-2,4,6(34),8,10(33),11,13,15(20),16,18-decaen-3-yl]acetic acid], the EC50 is reported as 331 nM.

Same assay, conditions: MT-2 cells infected with NL-RLuc virus, 5 days of incubation, 10% FBS, at least 2 experiments; read-out: EC50
For Cc1cc2nc3cn2c(c1[C@H](OC(C)(C)C)C(=O)O)N1CCC(C)(CC1)OCC=CC[C@H](C)Oc1cc(F)cc(F)c1-c1cccc-3c1 [Example 14, (2S)-2-(tert-Butoxy)-2-[(22S)-16,18-difluoro-4,22,28-trimethyl-21,27-dioxa-1,7,34-triazahexacyclo[26.2.2.1^6,^9.1^10,^14.0^2,^7.0^15,^20]tetratriaconta-2,4,6(34),8,10(33),11,13,15(20),16,18,24-undecaen-3-yl]acetic acid], the EC50 was 2 nM.
